From paper PMC11601558, “SLC6A19 inhibition facilitates urinary neutral amino acid excretion and lowers plasma phenylalanine” (JCI Insight, 2024) come the findings set out here.

Series [1] can be described thus: JN-170 plasma pharmacokinetics in C57Bl/6J mice, single oral dose. The series is classed as in vivo, mouse. Also on record: JN-170 plasma level (Fig 2a): unit not given here. The method, then:
Male homozygous BTBR-Pah<enu2>/J (Pah^enu2) aged 10–13 weeks were purchased from Jackson Laboratory (no. 002232). Immediately before dosing, each animal’s bladder was manually emptied and a plasma sample was drawn. Animals were dosed by oral gavage with vehicle (10% DMSO, 20% 2-hydroxypropyl-β-cyclodextrin [Sigma-Aldrich]) followed by a 1-week washout prior to dosing with JN-170 at doses ranging from 50 to 250 mg/kg. Following dosing with vehicle or JN-170, animals were individually placed in metabolic cages to collect urine samples. After collection of each urine sample, cages were rinsed with ultra-pure water to recover residual analytes. Blood samples were collected predose as well as 1, 3, 8, 12, and 24 hours after dosing with vehicle or JN-170 into tubes with EDTA as a […], and plasma was separated by centrifuging samples at 2,200g for 5 minutes at 4°C. Throughout the study, mice had access to food and water ad libitum. Plasma and urine samples were stored at –80°C until processing.Ten-week-old male WT C57Bl/6J animals (Si Bei Fu Laboratory Animal Technology Co. Ltd.) were dosed either with vehicle or 50–250 mg/kg JN-170 by oral gavage and blood and urine samples were collected as described. All animals had unrestricted access to food and water during the study; C57Bl/6J were kept on rodent maintenance diet from Beijing Keao Xieli, Pah^enu2 mice were kept on Teklad diet no. T.2018.
Plasma sample analyses were carried out by liquid chromatography tandem mass spectrometry (LC-MS/MS). Plasma samples were mixed 1:1 with carbamazepine or ^13C6-Phe as internal standards for JN-170 and Phe, respectively. Plasma proteins were precipitated by adding 4 volumes of acetonitrile (ACN) and 0.1% formic acid (FA) followed by centrifugation for 5 minutes at 2,100g. Supernatants were diluted 1:1 in ACN and 0.1% FA. For JN-170, a Waters HSS T3 reversed phase column was used for separation using a binary gradient of 0.1% FA in water (mobile phase A) to 0.1% in ACN (mobile phase B). At a flow rate of 0.8 mL/min, the mobile phase gradient increased from an initial 25% phase B to 95% phase B over 30 seconds. After, 1.5 minutes, the gradient was returned to 25% mobile phase B. For detection of Phe, an Acquity UPLC ethylene bridged hybrid (BEH) amide column was used, with a binary gradient of 10 mM ammonium acetate in 95:5:1 H2O:ACN:FA (mobile phase A) to 10 mM ammonium acetate in 95:5:1 ACN:H2O:FA (mobile phase B). At a flow rate of 0.5 mL/min, the mobile phase gradient changed from an initial 100% phase B to 50% phase B over 2.1 minutes. It was returned to 100% phase B after 4 minutes. Analytes were detected using a Sciex API-5500 in multiple reaction monitoring mode using an electrospray ionization source in the positive ion mode with the following ion transitions: m/z 435.2/84.1 (JN-170), 237.1/194.1 (carbamazepine), 166.1/120.1 (Phe), 172.2/126.2 for (^13C6-Phe). Analyte concentrations were calculated with a 1/×^2 linear regression over a concentration range of 1 or 2 to 5,000 ng/mL for JN-170 and 0.05–100 ng/mL for Phe.

A further series relates to healthy volunteers. As to the kind of experiment: Urine amino acid excretion in healthy volunteers (pharmacodynamics). The format is in vivo, human. The method, then: The effect of JNT-517 on plasma and urine AA levels was measured using an ultra-performance liquid chromatography mass spectrometry assay following 6-aminoquinolyl-N-hydroxysuccinimidyl carbamate (AQC) derivatization. For the SAD study, plasma samples were collected on day –1 and day 1 predose, as well as 24, 48, and 72 hours after dosing. A first morning void urine sample on Days –1 and 1 predose, as well as 2 pooled urine samples 0–8 hours after and 8–24 hours after dose were also collected following study drug administration. For the MAD study, plasma samples were collected on day –1, 1, 7, and 14 predose, as well as day 14, 24 hours after dosing. A first morning void urine samples on day –1, 1, 7, and 14 as well as 2 pooled urine samples 0–8 hours and 8–24 hours after dose on days 1, 7, and 14 were also collected following JNT-517 or placebo administration. Study participants in SAD and MAD cohorts were dosed in the morning following an overnight fast of at least 8 hours and were provided the following meals in relation to dosing times: breakfast after the morning dose, lunch 4 hours after morning dose, optional snack in the afternoon 8 hours after the morning dose and after the second dose for MAD cohorts dosed BID, dinner approximately 10 hours after the morning dose and at least 2 hours after the second dose for MAD cohorts dosed BID. Predose plasma amino acids were drawn after a minimum of 8 hours fasting overnight and after-dose levels were drawn after > 1.5 hours fasting. Resulting plasma and urine amino acid concentration measurements, as well a total amino acid excretion over a time period were summarized using appropriate descriptive statistics and compared with either predose levels or placebo-dose values. Tryptophan was not included in the amino acid panel due to analytical limitations.
IC50 values for transport inhibition in cells overexpressing SLC6A19 and TMEM27 were calculated using a 4-parameter logistic regression in Collaborative Drug Discovery (CDD). Reported IC50 values are geometric means of 4–6 independent experiments. For postmortem intestinal transport assays, single outliers of quadruplicate replicates were excluded from the calculation if a signal value’s distance to the mean exceeded 35% of the signal average. The IC50 values of individual experiments were calculated with a 3- or 4-parameter logistic regression using GraphPad Prism 9. The reported IC50 value represents the geometric mean of n = 5 experiments from 3 individual donors. Statistical comparison of urinary Phe excretion in Pah^enu2 mice treated with vehicle or JN-170 was conducted using 1-way analysis of variance (ANOVA) with Tukey’s post hoc comparison. Statistical analysis of baseline-adjusted plasma Phe in mice treated with vehicle or JN-170 was determined by 2-way ANOVA with Dunnett’s post hoc comparison. All statistical analyses were performed using GraphPad Prism 9. For clinical studies, group sizes were not determined based on statistical power calculations. Statistical significance of pharmacodynamic results was not assessed. Values are reported as mean (urinary Phe excretion, T1/2, Cl/F), geometric mean (Cmax/D, AUC0-inf/D), or median (Tmax).

Several values for one entry are separate records, joined by “and”; a condition that tells them apart may be missing. Equal values may be shown once.

As a reminder, the bioavailability is dose-corrected exposure relative to a reference, in per cent. In the case of `N#Cc1ccc(-c2noc([C@]3(C(F)(F)F)CCN(C(=O)NCCC4(N)CC4)C3)n2)cc1` [JN-170], the “JN-170 plasma level (Fig 2a)” value in series [1] (50 mg/kg oral, 1 h, individual C57Bl/6 mice) was 4800 and 3580 and 3220 and 2280 and 3950 and 3920; in series [1] (50 mg/kg oral, 3 h, individual C57Bl/6 mice) it was 1290 and 798 and 1160 and 1370 and 1130 and 1480; in series [1] (50 mg/kg oral, 8 h, individual C57Bl/6 mice) it was 54.1; in series [1] (100 mg/kg oral, 1 h, individual C57Bl/6 mice) it was 5300 and 7590 and 9540 and 8120 and 9150 and 8490; in series [1] (100 mg/kg oral, 3 h, individual C57Bl/6 mice), 3330 and 3500 and 3620 and 5290 and 4430 and 4000; in series [1] (100 mg/kg oral, 8 h, individual C57Bl/6 mice), 1010 and 870 and 627. The “JN-170 plasma level (Fig 2a)” value in series [1] (200 mg/kg oral, 1 h, individual C57Bl/6 mice) was 12900 and 18300 and 14800 and 17900 and 16400 and 14100; in series [1] (200 mg/kg oral, 3 h, individual C57Bl/6 mice) it was 9760 and 9530 and 8870 and 8820 and 12800 and 12000; in series [1] (200 mg/kg oral, 8 h, individual C57Bl/6 mice), 2260 and 1430 and 1410 and 2700 and 2480 and 4110; in series [1] (250 mg/kg oral, 1 h, individual C57Bl/6 mice), 18600 and 13000 and 21300 and 27800 and 20500 and 19600; in series [1] (250 mg/kg oral, 3 h, individual C57Bl/6 mice), 13400 and 8320 and 12600 and 16100 and 11000 and 13600. In series [1] (male, C57Bl/6J, mouse, plasma, oral, 250 mg/kg, 250 mg/kg oral, 8 h, individual C57Bl/6 mice, read-out: JN-170 plasma level (Fig 2a)), the concentration at 8 h turned out to be 3650 ng/mL. Further, in series [1] (male, C57Bl/6J, mouse, plasma, oral, 250 mg/kg, 250 mg/kg oral, 12 h, individual C57Bl/6 mice, read-out: JN-170 plasma level (Fig 2a)), the concentration at 12 h came out at 1760 ng/mL. The compound also registered a bioavailability in series [1] (male, C57Bl/6J, mouse, plasma, po) of roughly 5%.
Consider `NC(=O)N1CCC[C@@H](N(C(=O)NCc2ccc(OC(F)(F)F)cc2F)C2CC2)C1` [JNT-517], for which, in the series with healthy volunteers (MAD day 14, 75 mg BID), the “24 hour Phe excretion, mean ± SD” value came out at 89 ± 34 mg; the “Phe excreted from 0–8 hours, mean ± SD” value is 32 ± 20 mg; the “urine Phe excreted from 8–24 hours, mean ± SD” value worked out at 56 ± 19 mg. For the same compound, in the series on healthy volunteers (MAD day 14, 150 mg QD), the “24 hour Phe excretion, mean ± SD” value is reported as 72 ± 18 mg; the “Phe excreted from 0–8 hours, mean ± SD” value was determined as 53 ± 16 mg; the “urine Phe excreted from 8–24 hours, mean ± SD” value is on record as 20 ± 11 mg. Also, in the series on healthy volunteers (SAD 170 mg), the “Phe excreted in urine over a 24 hour period, mean ± SD” value worked out at 142 ± 30 mg and the “increase in 24 hour urinary Phe vs placebo” value is listed as “approximately 14 fold”. The “glutamine excreted in urine, mean ± SD” value in the series on healthy volunteers (SAD 170 mg, Supplemental Figure 6) is 1,904 ± 541 mg.
